We go through 9 compounds from patent US20260335446A1, “TETRAZINE-BASED TARGETING AGENTS FOR IN VIVO DELIVERY OF A PAYLOAD” (Tambo, Inc., priority 2023, published 2026).

One test can be described thus: LC-MS quantification of conversion of protodrug in presence of Compound 111 in rat plasma-EDTA. The note with it: FIG. 2, 37° C., Compound 111 100 μg/mL, protodrug 250 ng/mL. As to the method: Liquid chromatography-mass spectrometry (LC-MS) was used to quantify the conversion of Compound B protodrug to MMAE and Compound F to exatecan in the presence of Compound 111. Compound 111 (100 μg/mL) was added to rat plasma-EDTA and incubated at 37° C. The protodrugs, Compound B and Compound F, were added to the plasma with the final concentration of 250 ng/mL. At each time point, triplicate aliquots were transferred to a plate with various pH extraction conditions and precipitated with acetonitrile for Compound B/MMAE or methanol for Compound F/exatecan. LC-MS/MS analyzed the extracted samples with the instrument methods previously established for each analyte. The conversion percentage was calculated based on the initial concentration of protodrugs and the formation of exatecan and MMAE in mole/mL.
In the case of `CC[C@H](C)[C@@H]([C@@H](CC(=O)N1CCC[C@H]1[C@H](OC)[C@@H](C)C(=O)N[C@H](C)[C@@H](O)c1ccccc1)OC)N(C)C(=O)[C@@H](NC(=O)[C@H](C(C)C)N(C)C(=O)O[C@H]1/C=C/CC[C@@](C)(C(=O)N[C@@H](CC(=O)O)C(=O)O)CC1)C(C)C` [Compound B], the “conversion to MMAE after reaction with Compound 111” value is listed as “rapidly converted”.

In the case of `CC[C@@]1(O)C(=O)OCc2c1cc1n(c2=O)Cc2c-1nc1cc(F)c(C)c3c1c2[C@@H](NC(=O)O[C@H]1/C=C/CC[C@@](C)(C(=O)NCCOCCOCCOCCN(CCOCCOCCOCCC(=O)O)CCOCCOCCOCCC(=O)O)CC1)CC3` [Compound F], the “conversion to exatecan after reaction with Compound 111” value is “rapidly converted”.

Another test is described as follows: LCMS analysis of drug release by tetrazines (TCO-MMAE Compound B). The note with it: tetrazine 20 μM, Compound B 10 μM, PBS. As to the method: A solution of each tetrazine (20 μM final concentration) in PBS is mixed with TCO-MMAE Compound B (10 μM final concentration). The solution is mixed thoroughly and an aliquot removed at the appropriate time for analysis by LCMS.
As to `Cc1nnc(-c2ncccn2)nn1`, the “% Compound B consumed (1 h)” value came to 100%.

On to `Cc1nnc(-c2cn(C)cn2)nn1`, for which the “% Compound B consumed (1 h)” value is given as 74%. On the same count and under the same terms, to `Cc1nnc(-c2cocn2)nn1` belongs 42%; to `Cc1nnc(-c2ccc(C(F)(F)F)c(CN)c2)nn1`, 100%; to `Cc1nnc(-c2ccc(CN)c(C(F)(F)F)c2)nn1`, 100%. As for `Cc1nnc(-c2ccccn2)nn1`, the “% Compound B consumed (1 h)” value was found to be 100%. Consider `Cc1nnc(-n2cccn2)nn1`, for which the “% Compound B consumed (1 h)” value was determined as 81%.
